Patent publication US20040167226A1, “Methods for the treatment of pain and traumatic injury using benzamides and compositions containing the same” (priority 2002, published 2004)
Entries after “also recorded” stand apart in the source; their conditions may differ.

Key:
iNOS = test: Immunohistochemistry for inflammatory marker iNOS on contused spinal cord; type: in vivo; details: rats after contusion injury; 72 h post-injury, 1 mm caudal to epicenter
Description: (§1) Compound A was tested in both the rat dorsal hemisection (Guth, L. et al. (1980), J. Neurosurgery 52: 73-86) and contusion models (Scheff, S. W. (2003), J. Neurotrauma 20: 179-193) for evaluation of efficacy. These models are widely used in the field of spinal cord injury and replicate many of the pathological aspects found in humans who have sustained a spinal cord injury. Rats were subjected to an experimental spinal cord injury at T8, and were given Compound A shortly thereafter. Behavioral tests to assess the locomotion deficits were performed after the lesion. At the end of the experiment, animals were sacrificed and the spinal cord was collected for histopathological analysis. […] Histological assessment of the tissue at the site of injury was also made in both the drug treated and untreated group. In particular, subsequent to the behavioral measurement, spinal cord tissue from each animal was obtained and serial transverse tissue sections were stained with either anti-neurofilament antibody or antibodies specific for the inflammatory markers, tumor necrosis factor alpha (TNFα) and for the inducible form of nitric oxide synthetase (iNOS), followed by incubation with Alexa Fluor®-conjugated secondary antibodies.
Histological assessment of the tissue at the site of injury was also made in both the drug treated and untreated group. […]

[1] = tested on: Taxol-induced mechanical allodynia; test: Taxol-induced neuropathic pain mouse model, von Frey filament paw withdrawal; type: in vivo, C57B16 mice; details: mice
Description: C57B16 male mice were preconditioned (trained) in the enclosure one hour per day in the morning for one week prior to the baseline measurement. The baseline response to the mechanical stimulus was measured using a von Frey filament with 0.6 gram of force (von Frey number 3.84). Briefly, the von Frey filament, was applied to the plantar area of the right hind paw of mouse. The frequency of paw withdrawal was calculated in terms of percentage response, where the higher percentage indicates more pain, whereas the lower the percentage indicates less pain. Based on past experience with the C57B16 strain of adult male mice, animals with baseline no greater than 40% of response were included in further studies, while those with greater than 40% of paw withdrawal response to this particular force of stimulus, known as spontaneous mechanical allodynia, were discarded from these studies. The paw withdrawal behavior includes, licking the stimulated paw, vigorously shaking the paw and active avoidance upon application of innocuous mechanical stimuli. For those mice without spontaneous mechanical allodynia, Taxol was administered to the mice daily, 5 days a week, for longer than a one week period. Generally, mice treated with daily i.p. administration of 1 mg/kg (body weight) of Taxol develop relatively stable mechanical allodynia, neuropathic pain, on day 9 and thereafter. Prior to compound A administration, the responses of mice to 0.6 gram of von Frey filament were measured for two consecutive days in the morning. Only those mice with paw withdrawal response to this particular von Frey filament stimulus no less than 60%, counted as mechanical allodynia, were included for later testing with the compounds of interest.
Five-week old, male C57B1/6 mice were purchased from Charles River and housed at the Renovis animal facility in South San Francisco. Mice were trained for one week in an enclosure made of Plexiglas with dimensions of 2 in×2.5 in×3.5 in (W, H, and L) with a meshed metal support. The baseline of response to mechanical stimulus was measured using a von Frey Filament (0.6 g=3.84 mN). Normally, the baseline response is between 0 to 40%.
Taxol was dissolved (1 mg/ml) in 50% Cremophor EL and 50% alcohol, and freshly diluted with saline to the final concentration of 0.2 mg/ml in 10% Cremophor EL, 10% alcohol. Mice were administered Taxol at 1 mg/kg of body weight, via ip daily, while the animals of the control group received vehicle (10% Cremophor EL and 10% alcohol in saline).
Five-week old C57B1/6 male mice were trained for one week in the von Frey filament test, and baseline response (percent paw withdrawal over 40 tests) to a von Frey filament (0.6 gram=3.84 mN) was measured (average shown in the graph as “baseline (mean)”=31%).
Trained mice were treated with 1 mg/kg (body weight) taxol in 10% Cremophor EL/10% ethanol via ip injection daily through the end of the experiment in order to induce the neuropathic pain state.
The percent pain response (percent paw withdrawal over 40 tests) with a von Frey filament (0.6 gram=3.84 mN) was measured at day 8 and day 9 after pain induction (average of these two shown in the graph as “pre-dosing (mean)”=75%). Those animals with either sensitive baseline (>40% response) or without pain (<60% response) after 9 days of taxol injection were not included in the data analysis. Animals receiving this daily dose of Taxol will develop neuropathic pain.
[…] The animals were then placed in the enclosure for assay. Mechanical allodynia was measured with von Frey filament (0.6 g=3.84 mN) at various times after administration.
Nine taxol-treated animals received […] vehicle (75% polyethylene glycol (PEG)) via ip injection; 8 taxol-treated animals were injected ip with a suspension of Compound A in vehicle at dose of 50 mg/kg (body weight). […]

[2] = tested on: neurofilament (nerve fiber density); test: Immunohistochemistry of neurofilament on transverse spinal cord sections; type: in vivo; details: rats after spinal cord injury; anti-neurofilament staining; sections rostral and caudal to epicenter
Description: as §1

[3] = Brain-blood distribution of Compound A in the squirrel monkey; type: in vivo; details: brain / whole blood, twice-daily 10 mg/kg po for 5 weeks, 24 h post-dose, n = 12, read-out: Brain/Blood Ratio (Mean ± SD)
Description: Blood-brain distribution of Compound A was assessed in the mouse, rat, and squirrel monkey by determining the concentrations of Compound A in blood and brain tissue at specific times post dose. Rats and mice received a single po dose of 30 mg/kg. The monkeys received a twice-daily 10 mg/kg po dose of Compound A for a total of 5 weeks prior to sacrifice. Brain to blood ratios for Compound A, as shown below in Table 4, show high penetration of the blood-brain barrier.

## CC(=O)Nc1ccc(C(=O)NC(C)(C)C)cc1 [Compound A, N-tert-butyl-4-acetamidobenzamide]
iNOS
  inflammatory marker iNOS in the region of the corticospinal tract vs untreated control: decreased
[1]; 5 mg/kg/per day and 10 mg/kg/per day i.p., one dose per day, Cremophor EL/ETOH/saline
  mechanical allodynia under chronic dosing vs vehicle control: less mechanical allodynia
[1]; 10 mg/kg i.p. in Cremophor EL/ETOH/saline, 3-hour postdosing, +/-SEM
  percentage response to 0.6 gram von Frey filament: 40+/−10.9%
[1]; 10 mg/kg i.p. in Cremophor EL/ETOH/saline, 6-hour postdosing, +/-SEM
  percentage response to 0.6 gram von Frey filament: 42+/−95%
[1]; 10 mg/kg/per day i.p., Cremophor EL/ETOH/saline
  pain under chronic dosing: much less pain
[1]; 20 mg/kg i.p. in Cremophor EL/ETOH/saline, 3-hours postdosing, not statistically significant (p 0.08)
  percentage response to 0.6 gram von Frey filament: 59+/−8.1%
[1]; 50 mg/kg i.p. single dose in 75% PEG-200, 50 mg/kg
  analgesic effect on Taxol-induced pain (in words): has activity preventing Taxol-induced pain; also recorded: strong analgesic effect
[1]; 50 mg/kg i.p. single dose in 75% PEG-200, 1-hour postdosing, +/-SEM
  percentage of paw withdraw response to 0.6 gram von Frey filament: 20+/−7.6%
[1]; 50 mg/kg i.p. single dose in 75% PEG-200, 2-hour postdosing (so in the source), +/-SEM
  percentage of paw withdraw response to 0.6 gram von Frey filament: 32.5+/−13.1%
[1]; 50 mg/kg i.p. single dose in 75% PEG-200, 24-hour postdosing, +/-SEM
  percentage of paw withdraw response to 0.6 gram von Frey filament: 50+/−9.3%
[1]; 50 mg/kg i.p. single dose in 75% PEG-200, 48-hour postdosing, +/-SEM
  percentage of paw withdraw response to 0.6 gram von Frey filament: 65+/−6.3%
[1]; 5 and 10 mg/kg i.p. in Cremophor EL/ETOH/saline
  time of peak analgesic efficacy post dosing: 3 h
[1]; 5 and 10 mg/kg/per day i.p. chronic dosing
  drug tolerance or drug accumulation under chronic dosing: no significant drug tolerance or drug accumulation effects
[2]
  nerve fiber density in spinal cord tissue vs vehicle control: significantly higher nerve fiber density
[3]
  Kp at 24 h: 0.88 ± 0.09
